From BindingDB's records for patent US20240216357 (Sichuan Huiyu Pharmaceutical, 2024)

Target: Lysine-specific histone demethylase 1A (Homo sapiens, UniProt O60341)
Assay: LSD1 Enzyme Activity Assay

SMILES	IC50
COc1ccc(-c2c(-c3ccc(C#N)c(F)c3)nc(N3CCC(N)CC3)c3c2OCC(=O)N3)cc1O [US20240216357, Example 280]	0.000272 µM
COc1ccc(Nc2c(O)cc(N3CCC(N)CC3)nc2-c2ccc(C#N)c(F)c2)cc1F [US20240216357, Example 64]	0.119 µM
COc1ccc(-c2c(-c3ccc(C#N)c(F)c3)nc(N3CCC(N)CC3)c3c2cnn3C)cc1O [US20240216357, Example 285]	0.00093 µM
Cc1ccc(-c2c(-c3ccc(C#N)cc3)nc3c(N4CCC[C@@H](N)C4)nccn23)cc1 [US20240216357, Example 5]	0.0285 µM
Cc1noc2cc(-c3cc(C#N)c(N4CCC(N)CC4)nc3-c3ccc(C#N)c(F)c3)c(F)cc12 [US20240216357, Example 284]	0.633 µM
COc1cc(N2CCC(N)CC2)nc(-c2ccc(C#N)c(F)c2)c1-c1ccc(Cl)c(O)c1 [US20240216357, Example 98]	0.0007 µM
COc1ccc(-c2nc(N3CCC(N)CC3)cc(C#N)c2-c2ccc(C#N)c(F)c2)cc1O [US20240216357, Example 274]	0.0238 µM
